Results taken from patent US4775692A, “2,5,6,7-tetranor-4,8-inter-m-phenylene PGI2 derivatives” (Toray Industries, Inc., priority 1986, dated 1988).
Converted amounts (≈) assume the structure as drawn. Like-named read-outs stand apart in the source and are kept apart here.

How the values were obtained:
platelet aggregation = assay: Inhibiting effect of platelet aggregation (ADP-induced, human platelet-rich plasma); type: cell-based; conditions: human PRP, compound added one minute before ADP
Experimental: Inhibiting effect of platelet aggregation
The blood taken from a human median cubital vein was centrifuged at 800 rpm for 10 min. and a supernatant thereof was used as a platelet-rich plasma (PRP). An aliquot of PRP thus obtained was put into a small tube, to which […] (ADP) was added to induce platelet aggregation. The extent of aggregation was determined by detecting a change in turbidity of the aliquot by an apparatus for measuring platelet aggregation (Rika-Denki, Tokyo). The compound was added one minute before the addition of ADP. The concentration of the compound which may reduce the platelet aggregation, 50% of the control was designated as IC50.

corpus of stomach = assay: Gastric cytoprotection effect (lesion length / ulcer index after oral 0.2N NaOH); type: in vivo; conditions: 1 h, 30 min before oral 0.2N NaOH, lesion measured one hour later, read-out: Gastric cytoprotection effect ED50 (dose reducing the sore to 50% of control)
Text: Gastric cytoprotection effect
Gastric cytoprotection effect was studied according to the method by A. Robert (Gastroenterology, 77(3), 443, (1979)). Thirty min. after oral administration of the compound according to the invention, 0.2N NaOH was orally applied to the animals.
One hour later, the animals were killed under anesthesia by chloroform. The stomach was removed and fixed in a solution of 5% formalin. After fixation, the stomach was cut along the greater curvature. A total length of the lesion appearing on the corpus of stomach was then measured and served as an ulcer index.
The dose of the compound which may reduce the sore to 50% of that of the control was designated as ED50.
The gastric cytoprotection effects of the compounds according to the invention, which is thus represented by ED50, are summarized in Table 1.

gastric acid secretion [1] = assay: Inhibiting effect of gastric acid secretion, pylorus-ligated rat (Shay); type: in vivo; conditions: pylorus ligation, injected into duodenum, 5 hours
Experimental: (§1) Inhibiting effect of gastric acid secretion
Under anesthesia by ether, the abdomen of the rat was incised in its median and a pylorus was ligated with silk thread according to Shay (Gastroenterology 5, 43 (1945)). Simultaneously, the compound was injected into a duodenum of the rat and then the incision was closed.
Five hours later, the median-incision of the abdomen was again performed and the esophargus was ligated and then the whole stomach was removed.
The stomach was cut along a greater curvature and the contents thereof was transferred into a graduated centrifuge tube. After centrifugation at 3,000 rpm for 10 min., a volume of a gastric juice was measured and a part of its supernatant was titrated to pH 7 with 0.1N NaOH using a pH-stat (Radio meter).
The mean dose of the compounds which may reduce the volume of gastric juice (ml) and acidity (mEq/ml) of a group of five animals to 50% of that of the controls were designated respectively as ED50.

gastric acid secretion [2] = assay: Inhibiting effect of gastric acid secretion, perfused stomach, pentagastrin-stimulated (Ghosh & Schild); type: in vivo, male SD rat; conditions: urethane-anesthetized SD rat, pentagastrin 0.05 μg/kg/min, injected through femoral vein; ratio of area index to that of PGE2
Experimental: as §1
A male SD rat was incised in the abdomen under anesthesia by urethane and the lumen of a stomach was perfused with a physiolosical saline solution through a double-cannula inserted into a lumen of the stomach. A pH of a draining gastric acid was monitored using a pH-meter (M. Ghosh, H. Schild, Br. J. Pharmacol. 13, 54 (1958)). The secretion of gastric acid was stimulated by a continuous infusion of the pentagastrin at a rate of 0.05 μg/kg/min. When the pH of gastric acid became stable value of about 4, the compound was injected through a femoral vein. As an index of the inhibiting effect of gastric acid secretion by the compound was calculated from the area surrounded by the curve drawn by the time course of the pH of gastric acid, from the point increase by the injection of the compound and to the point it came back to baseline. The index thus obtained was compared to that of PGE2 and a ratio therebetween was shown in Table 3, as a relative effect of the compound.

[3] = tested on: blood pressure of the carotid; assay: Hypotensive effect (carotid blood pressure, anesthetized rat); type: in vivo; conditions: chloralose-anesthetized Wistar male rat, injected via catheter connected to femoral artery; read-out: Hypotensive effect ED25 (dose reducing blood pressure by 25 mmHg)
Experimental: A catheter was inserted to a carotid of the Wistar male rat under chloralose anesthesia. Another end of the catheter was connected to a polygraph with a pressure-transducer to detect a blood pressure of the carotid. The compound was injected via catheter connected to a femoral artery. The dose of the compound which may reduce the blood pressure in an amount of 25 mmHg was designated as ED25.

[4] = acidity (mEq/ml) to 50% of controls, read-out: Inhibiting effect of gastric acid secretion ED50, Acidity
[5] = volume (ml) to 50% of controls, read-out: Inhibiting effect of gastric acid secretion ED50, Volume of the gastric juice

Compound	IC50 (platelet aggregation) [ng/mL]	ED50 (corpus of stomach) [µg/kg]	ED50 (gastric acid secretion [1]; [4]) [µg/kg]	ED50 (gastric acid secretion [1]; [5]) [µg/kg]	Inhibiting effect of gastric acid secretion, Relative effect (PGE2 = 1) (gastric acid secretion [2])	ED (25 mmHg) [3] [µg/kg]
CCCOCC(C)(C)[C@H](O)/C=C/[C@@H]1[C@H]2c3cccc(OCC(=O)O)c3O[C@H]2C[C@H]1O (relative stereo) [Compound 309, 16,16-Dimethyl-20a-homo-2,5,6,7-tetranor-4,18-dioxa-4,8-inter-m-phenylene PGI2]	72 (≈ 171 nM)	7.47	2010	805	33	0.3
O=C(O)COc1cccc2c1O[C@H]1C[C@@H](O)[C@H](/C=C/[C@@H](O)c3cccc(Cl)c3)[C@@H]21 (relative stereo) [Compound 285, 15-(m-chlorophenyl)-2,5,6,7,16,17,18,19,20-nonanor-4-oxa-4,8-inter-m-phenylene PGI2]	0.23 (≈ 0.552 nM)	3.5	1200	880	4.1	0.055
O=C(O)COc1cccc2c1O[C@H]1C[C@@H](O)[C@H](/C=C/[C@@H](O)c3ccccc3Cl)[C@@H]21 (relative stereo) [Compound 281, 15-(o-chlorophenyl)-2,5,6,7,16,17,18,19,20-nonanor-4-oxa-4,8-inter-m-phenylene PGI2]	0.82 (≈ 1.97 nM)	2.4	500	460	10	0.14
CCC(C)(C)[C@H](O)/C=C/[C@@H]1[C@H]2c3cccc(OCC(=O)O)c3O[C@H]2C[C@H]1O (relative stereo) [Compound 172, 16,16-Dimethyl-2,5,6,7,19,20-hexanor-4-oxa-4,8-inter-m-phenylene PGI2]	2.1 (≈ 5.58 nM)	4.6			19	0.72
O=C(O)COc1cccc2c1O[C@H]1C[C@@H](O)[C@H](/C=C/[C@@H](O)c3cccc(C(F)(F)F)c3)[C@@H]21 (relative stereo) [Compound 278, 15-(m-trifluoromethylphenyl)-2,5,6,7,16,17,18,19,20-nonanor-4-oxa-4,8-inter-m-phenylene PGI2]	0.79 (≈ 1.75 nM)	3.1	1100	630	6.9	0.11
Cc1ccc([C@H](O)/C=C/[C@@H]2[C@H]3c4cccc(OCC(=O)O)c4O[C@H]3C[C@H]2O)cc1 (relative stereo) [Compound 270, 15-(p-methylphenyl)-2,5,6,7,16,17,18,19,20-nonanor-4-oxa-4,8-inter-m-phenylene PGI2]	1.6 (≈ 4.04 nM)	25.5			16	0.12
CCOCC(C)(C)[C@H](O)/C=C/[C@@H]1[C@H]2c3cccc(OCC(=O)O)c3O[C@H]2C[C@H]1O (relative stereo) [Compound 305, 16,16-Dimethyl-2,5,6,7-tetranor-4,18-dioxa-4,8-inter-m-phenylene PGI2]	90 (≈ 221 nM)	13.1			99	0.55
Cc1ccccc1[C@H](O)/C=C/[C@@H]1[C@H]2c3cccc(OCC(=O)O)c3O[C@H]2C[C@H]1O (relative stereo) [Compound 266, 15-(o-methylphenyl)-2,5,6,7,16,17,18,19,20-nonanor-4-oxa-4,8-inter-m-phenylene PGI2]	2.3 (≈ 5.8 nM)	31.2			7.2	0.32
CC(C)(C)[C@H](O)/C=C/[C@@H]1[C@H]2c3cccc(OCC(=O)O)c3O[C@H]2C[C@H]1O (relative stereo) [Compound 168, 16,16-Dimethyl-2,5,6,7,18,19,20-heptanor-4-oxa-4,8-inter-m-phenylene PGI2]	1.54 (≈ 4.25 nM)	30.5			3.5	0.49

More lines, main results first:

IC50 (platelet aggregation) [ng/mL]	Compound	ED50 (corpus of stomach) [µg/kg]	ED50 (gastric acid secretion [1]; [4]) [µg/kg]	ED50 (gastric acid secretion [1]; [5]) [µg/kg]	Inhibiting effect of gastric acid secretion, Relative effect (PGE2 = 1) (gastric acid secretion [2])	ED (25 mmHg) [3] [µg/kg]
24 (≈ 57.3 nM)	CCCCCC(C)(C)[C@H](O)/C=C/[C@@H]1[C@H]2c3cccc(OCC(=O)O)c3O[C@H]2C[C@H]1O (relative stereo) [Compound 184, 16,16-Dimethyl-20a-homo-2,5,6,7-tetranor-4-oxa-4,8-inter-m-phenylene PGI2]	2.3			85	0.5
0.56 (≈ 1.49 nM)	CCCCC[C@H](O)/C=C/[C@@H]1[C@H]2c3cccc(OCC(=O)O)c3O[C@H]2C[C@H]1O (relative stereo) [Compound 156, 2,5,6,7-Tetranor-4-oxa-4,8-inter-m-phenylene PGI2]	11.3	2330	330	39	0.46
0.37 (≈ 0.915 nM)	CCCC(C)(C)C[C@H](O)/C=C/[C@@H]1[C@H]2c3cccc(OCC(=O)O)c3O[C@H]2C[C@H]1O (relative stereo) [Compound 200, 17,17-Dimethyl-2,5,6,7-tetranor-4-oxa-4,8-inter-m-phenylene PGI2]	3.6			3.0	0.16
6.9 (≈ 16 nM)	CCCCCCC(C)(C)[C@H](O)/C=C/[C@@H]1[C@H]2c3cccc(OCC(=O)O)c3O[C@H]2C[C@H]1O (relative stereo) [Compound 188, 16,16-Dimethyl-20a,20b-dihomo-2,5,6,7-tetranor-4-oxa-4,8-inter-m-phenylene PGI2]	2.8			23	1.5
30 (≈ 76.8 nM)	CCCCCC(C)(O)/C=C/[C@@H]1[C@H]2c3cccc(OCC(=O)O)c3O[C@H]2C[C@H]1O (relative stereo) [Compound 210, 15-Methyl-2,5,6,7-tetranor-4-oxa-4,8-inter-m-phenylene PGI2]	109			13	0.89
8 (≈ 17.9 nM)	CCCCCCCC(C)(C)[C@H](O)/C=C/[C@@H]1[C@H]2c3cccc(OCC(=O)O)c3O[C@H]2C[C@H]1O (relative stereo) [Compound 192, 16,16-Dimethyl-20a,20b,20c-trihomo-2,5,6,7-tetranor-4-oxa-4,8-inter-m-phenylene PGI2]	3.9			0.7	0.59
